In patent publication US20240383856A1 (Zedira GmbH, priority 2021, published 2024):
Like-named read-outs stand apart in the source and are kept apart here.

What was measured:
[1] = Caco-2 permeability assay (CacoReady kit); format: in vitro ADME; details: human
Procedure, shortened: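 Intestinal permeability modelled with kit-supplied Caco-2 barriers, run as the maker specifies; each compound reported as Papp.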

[2] = target: T1, recombinant human transglutaminase 2 (Homo sapiens, UniProt P21980); assay: Transglutaminase assay (DCC-assay): incorporation of dansylcadaverine into dimethylcasein; format: biochemical
T1 construct: purchased Zedira T022
T1 sequence (P21980 1-687): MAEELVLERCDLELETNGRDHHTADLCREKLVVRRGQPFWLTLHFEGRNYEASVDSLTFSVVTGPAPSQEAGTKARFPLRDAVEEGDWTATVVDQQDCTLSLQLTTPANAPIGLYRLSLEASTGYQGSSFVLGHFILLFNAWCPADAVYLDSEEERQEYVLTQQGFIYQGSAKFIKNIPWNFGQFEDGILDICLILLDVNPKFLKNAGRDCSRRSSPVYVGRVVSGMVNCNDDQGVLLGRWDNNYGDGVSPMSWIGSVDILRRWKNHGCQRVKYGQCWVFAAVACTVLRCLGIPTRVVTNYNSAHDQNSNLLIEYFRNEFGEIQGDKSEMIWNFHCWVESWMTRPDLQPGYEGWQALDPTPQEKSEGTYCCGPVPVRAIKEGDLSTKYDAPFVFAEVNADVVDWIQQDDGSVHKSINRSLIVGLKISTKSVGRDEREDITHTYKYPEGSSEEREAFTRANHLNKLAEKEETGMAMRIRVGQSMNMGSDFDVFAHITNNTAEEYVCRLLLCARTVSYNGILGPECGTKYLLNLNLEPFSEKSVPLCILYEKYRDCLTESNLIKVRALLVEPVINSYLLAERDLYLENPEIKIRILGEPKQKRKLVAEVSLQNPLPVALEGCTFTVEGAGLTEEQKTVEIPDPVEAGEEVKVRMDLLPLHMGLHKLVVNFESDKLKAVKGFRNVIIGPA
Procedure, shortened: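 IC50 is the inhibitor level that blocks 50% of initial activity. Activity is the fluorescence slope (λex 330, λem 500 nm) between 20 and 30 min of a 37 °C run, relative to a 2% DMSO control. The enzyme is recombinant human tissue transglutaminase, 10 nM final, tested against a 1:2 inhibitor dilution series in a pH 8.0 mix with 10 mM CaCl2, 10 mM glutathione, 16.7 µM dansylcadaverine and 4 µM N,N-dimethylcasein.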

[3] = logD by shake flask method (octanol / PBS pH 7.4, HPLC); format: physicochemical; details: octanol / PBS pH 7.4, shake flask
Procedure, shortened: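 LogD obtained by HPLC measurement of how the compound distributes between PBS (pH 7.4) and octanol in a shake-flask experiment.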

[4] = Single-dose oral pharmacokinetic profile in mice; format: in vivo; details: male C57BL/6 mice, single oral dose 200 mg/kg; for CL/F / MRT / half-life / AUC(0-t) / Cmax: mouse, plasma
Protocol: Presumed from promising Papp values (permeability coefficients, see below), the 5 inventors had proven the oral bioavailability of the inhibitors of the present application by the representative compounds II-3, II-15, and II-28. For this selected set of representative compounds, pharmacokinetic profiles were determined in male C57BL/6 mice (N=3, each). Briefly, the compounds were administered as single-dose soluble, oral formulation [20 mg/ml in PBS/(2—Hydroxypropyl)-β-cyclodextrin formulation] at 200 mg/kg. Plasma samples were taken at (0, 0.25, 0.5, 1, 2, 4, and 6 hours) and analyzed by LC-MS to determine the concentration of the representative compounds.

[5] = Caco-2, Caco-2, read-out: Papp [cm/s] ×10^−6
[6] = Caco-2, Caco-2 barrier, CacoReady kit, above 1×10^−6 cm/s classified as permeable
[7] = TG2, table with the PK study, read-out: IC50
[8] = recombinant human TG2 10 nM, dansylcadaverine incorporation into dimethylcasein, read-out: IC50 TG2

CNC(=O)C(=O)CC[C@H](NC(=O)c1sc(C(F)(F)F)nc1C)C(=O)Nc1cccn(CC(=O)NC2C3CC4CC(C3)CC2C4)c1=O (stereo partly drawn) [II-15, (S)-N1-(1-(2-(2-adamantylamino)-2-oxoethyl)-2-oxo-1,2-dihydropyridin-3-yl)-N6-methyl-2-(4-methyl-2-(trifluoromethyl)thiazole-5-carboxamido)-5-oxohexanediamide]
Papp [1, 5]: 5.9 ×10⁻⁶ cm/s
Papp [1, 6]: 1 to 10 ×10⁻⁶ cm/s
IC90 ([2]; TG2, table with the PK study): 375 nM
IC50 [2, 7]: 35 nM
IC50 [2, 8]: < 40 nM
logD [3]: 1 to 3
Kel [4]: 0.9 h⁻¹
CL/F [4]: 102 mL/min/kg
MRT [4]: 1.1 h
half-life [4]: 0.9 h
AUC(0-t) [4]: 36900 ng·h/mL
Cmax ([4]; read-out: Cmax): 48.6 µM
Cmax ([4]; read-out: Cmax [ng/ml]): 32300 ng/mL

CNC(=O)C(=O)CC[C@H](NC(=O)c1cc(Cl)sc1Cl)C(=O)Nc1cccn(CC(=O)NC2C3CC4CC(C3)CC2C4)c1=O (stereo partly drawn) [II-28, (S)-2-(2,5-dichlorothiophene-3-carboxamido)-N1-(1-(2-(2-adamantylamino)-2-oxoethyl)-2-oxo-1,2-dihydropyridin-3-yl)-N6-methyl-5-oxohexanediamide]
Papp [1, 5]: 7.4 ×10⁻⁶ cm/s
Papp [1, 6]: 1 to 10 ×10⁻⁶ cm/s
IC90 ([2]; TG2, table with the PK study): 240 nM
IC50 [2, 7]: 24 nM
IC50 [2, 8]: < 40 nM
logD [3]: 1 to 3
Kel [4]: 0.6 h⁻¹
CL/F [4]: 247 mL/min/kg
MRT [4]: 1.6 h
half-life [4]: 1.1 h
AUC(0-t) [4]: 14500 ng·h/mL
Cmax ([4]; read-out: Cmax): 23.3 µM
Cmax ([4]; read-out: Cmax [ng/ml]): 15100 ng/mL
